Experimental data published in patent publication US12280036B2, “Using fatty acid synthase inhibitors to treat fibrosis” (Mayo Foundation for Medical Education and Research, priority 2016, dated 2025).

Key:
AKR-2B cells [1] = assay: In vitro cell proliferation (MTT assay and cell counts), AKR-2B; assay type: cell-based, murine; conditions: C75 3 μM, 0.1% FBS or 10% FBS
Experimental: (§1) Murine fibroblasts (AKR-2B) and human lung fibroblasts (MRCS) were seeded at 2.5×10^3 or 1×10^4 cells/96 well plate, respectively. AKR-2B cells were seeded in medium containing 10% DMEM/FBS, and MRCS cells were seeded in medium containing 10% EMEM/FBS. 24 hours after seeding, the medium was removed and replaced with DMEM or EMEM containing vehicle (0.1% DMSO), or C75 (3 μM) either in 10%, 0.1%, or 0% FBS for 24 hours prior to MTT assay (FIG. 6A). Absorbance was measured at 570 nm. Results represent mean±SEM from three independent experiments
as §1, with “1.0×10^4 cells/well in 24” for “2.5×10^3 or 1×10^4 cells/96”, “plates for 24 hours.” for “plate, respectively.”, “determining cell counts following an additional 24 hour and 48 hour incubation” for “MTT assay”, “6B).” for “6A). Absorbance was measured at 570 nm.”, “experiments.” for “experiments”

AKR-2B cells [2] = assay: Soft agar colony formation assay; assay type: cell-based, murine; conditions: 0, 0.3, 1, 3, or 10 μM C75, TGFβ 10 ng/ml, 7 days growth, dose dependent
Experimental: Murine fibroblasts (AKR-2B) were treated for 24 hours with vehicle (0.025% DMSO) or C75 (FASN inhibitor, 3 μM) in the presence or absence of TGFβ (10 ng/ml), and 0, 0.3, 1, 3, or 10 μM C75. Following 7 days growth, cells were subjected to soft agar colony formation assays. TGFβ increased colony formation, but inhibition of FASN activity with C75 suppressed TGFβ induced colony formation in a dose dependent manner (FIG. 4B; *p-value<0.05, **p-value<0.01). Data reflect the mean+/−standard deviation of triplicate wells from 3 experiments.
Murine fibroblasts (AKR-2B) were transfected with either a nontargeting control siRNA (60 nmol/L) or with FASN-targeting siRNA (60 nmol/L). After 72 hours of cultivation, the transient transfectants were stimulated in the absence or presence of 10 ng/ml TGFβ for 24 hours. Following 7 days growth, cells were subjected to soft agar colony formation assays. TGFβ increased colony formation, but inhibition of FASN activity with FASN-targeting siRNA suppressed TGFβ induced colony formation (FIG. 5B; **p-value<0.01). Data reflect the mean standard deviation of triplicate wells from 3 experiments.

MRCS cells [3] = assay: In vitro cell proliferation (MTT assay and cell counts), MRCS; assay type: cell-based, human; conditions: C75 3 μM, FBS free or 10% FBS
Experimental: as §1
as §1, with “1.0×10^4 cells/well in 24” for “2.5×10^3 or 1×10^4 cells/96”, “plates for 24 hours.” for “plate, respectively.”, “determining cell counts following an additional 24 hour and 48 hour incubation” for “MTT assay”, “6B).” for “6A). Absorbance was measured at 570 nm.”, “experiments.” for “experiments”

[4] = tested on: profibrotic TGFβ signaling; assay: Western blot of TGFβ induced profibrotic proteins in AKR-2B fibroblasts; assay type: cell-based, murine; conditions: C75 3 μM, TGFβ 10 ng/ml, 24 hours
Experimental: (§2) Murine fibroblasts (AKR-2B) and human lung fibroblasts (MRCS) were treated for 24 hours with vehicle (0.025% DMSO) or C75 (FASN inhibitor, 3 μM) in the presence or absence of TGFβ (10 ng/ml). Proteins were obtained from treated and control cells. Protein samples were Western blotted for FASN, Col I, Col IV, FN, CTGF, and pSmad3, and Western blotted for GAPDH as a loading control. TGFβ increased expression of FASN, Col I, Col IV, FN, CTGF, and pSmad3, but inhibition of FASN activity with C75 suppressed TGFβ induced Col I, Col IV, and FN expression (FIG. 4A).
(§3) Murine fibroblasts (AKR-2B) and human lung fibroblasts (MRCS) were transfected with either a nontargeting control siRNA (60 nmol/L) or with FASN-targeting siRNA (60 nmol/L). After 72 hours of cultivation, the transient transfectants were stimulated in the absence or presence of 10 ng/ml TGFβ for 24 hours. Proteins were obtained from treated and control cells. Protein samples were Western blotted for FASN, Col I, Col IV, FN, CTGF, and pSmad3, and Western blotted for GAPDH as a loading control. TGFβ increased expression of FASN, Col I, Col IV, FN, CTGF, and pSmad3, but inhibition of FASN activity with FASN-targeting siRNA suppressed TGFβ induced Col I, Col IV, and FN expression (FIG. 5A).

AKR-2B cells [5] = assay: Scratch assay (cell migration), AKR-2B; assay type: cell-based, murine; conditions: C75 3 μM, TGFβ 10 ng/ml, 24 hours
Experimental: (§4) Murine fibroblasts (AKR-2B) and human lung fibroblasts (MRCS) were treated for 24 hours with vehicle (0.025% DMSO), TGFβ (10 ng/ml), or both TGFβ (10 ng/ml) and C75 (3 μM). Following 24 hours of treatment, culture plates were manually scratched. TGFβ increased cell migration, but inhibition of FASN activity with C75 suppressed TGFβ induced cell migration (FIG. 4C). Data are representative of 3 separate experiments.
Murine (AKR-2B) lung fibroblasts were transfected with either a nontargeting control siRNA (60 nmol/L) or with FASN-targeting siRNA (60 nmol/L). After 72 hours of cultivation, the transient transfectants were stimulated in the absence or presence of 10 ng/ml TGFβ for 24 hours. Following 24 hours of treatment, culture plates were manually scratched. TGFβ increased cell migration, but inhibition of FASN activity with FASN-targeting siRNA suppressed TGFβ induced cell migration (FIG. 5C). Data are representative of 3 separate experiments.

MRCS cells [6] = assay: Scratch assay (cell migration), MRCS; assay type: cell-based, human; conditions: C75 3 μM, TGFβ 10 ng/ml, 24 hours
Experimental: as §4

FN, CTGF, and Col I = assay: qPCR of profibrotic genes in lung tissue of bleomycin challenged mice; assay type: in vivo; conditions: 0.03, 0.3, or 3 mg/kg C75 intraperitoneal every 4th day from day 14, lung harvested day 28, dose dependent
Experimental: Mice were challenged with bleomycin or vehicle (methocel/0.1% DMSO), and every 4th day, beginning 14 days following initial bleomycin insult, were treated by intraperitoneal injection with vehicle, 0.03 mg/kg, 0.3 mg/kg, or 3 mg/kg C75. Murine lung tissue was harvested on day 28 and RNA was obtained. qPCR was performed using primers specific for FN, CTGF, and Col I.
Data reflect mean standard deviation from lungs of n=5 (control, bleomycin, 0.03 mg/kg C75), 7 (0.3 mg/kg C75), or 8 (3 mg/kg C75) animals.

[7] = Oxygen saturation (SpO2) in bleomycin challenged mice; assay type: in vivo; conditions: 0.03, 0.3, or 3 mg/kg C75 every 4th day from day 14, room air, dose dependent
Experimental: Mice were challenged with bleomycin or saline for 25 days, and every 4th day, beginning 14 days following initial bleomycin insult, were treated with vehicle (methocel/0.1% DMSO) or with 0.03 mg/kg, 0.3 mg/kg, or 3 mg/kg C75. Oxygen saturation (SpO2) levels (determined on room air) were measured.
Bleomycin-induced fibrotic conditions caused reduced, time-dependent fluctuations in oxygen saturation, but inhibition of FASN activity with C75 stabilized lung gas exchange in a dose dependent manner (FIG. 7; *p-value<0.05, **p-value<0.01). Error bars reflect standard deviation from n=5 (control, BLM, 0.03 mg/kg C75), 7 (0.3 mg/kg C75), or 8 (3 mg/kg C75) animals.

[8] = tested on: profibrotic TGFβ signaling; assay: Western blot of TGFβ induced profibrotic proteins in MRCS lung fibroblasts; assay type: cell-based, human; conditions: C75 3 μM, TGFβ 10 ng/ml, 24 hours
Experimental: as §2, §3

[9] = Adenovirus-TGFβ model of pulmonary fibrosis; assay type: in vivo; conditions: adenovirus-TGFβ1 mice; 3.0 mg/kg C75 every 4th day from day 21; blood oxygen days 21 and 35, hydroxyproline and qPCR day 39
Experimental: Mice were infected with 1×10^8 pfu adenovirus particles expressing control (GFP) or active TGFβ1 by tracheal instillation. On day 21 all animals began treatment every 4th day with either vehicle (Methocel/saline) or 3.0 mg/kg of C75. Peripheral blood oxygen determined on days 21 and 35 (FIG. 10A). Data reflect mean+/−SEM of n=8 and n=15 for adenovirus-GFP and adenovirus-TGFβ, respectively. *P<0.05. Mice were infected with 1×10^8 pfu adenovirus particles expressing control (GFP) or active TGFβ1 by tracheal instillation. On day 21 all animals began treatment every 4th day with either vehicle (Methocel/saline) or 3.0 mg/kg of C75. Mice were sacrificed on day 39 and processed for lung hydroxyproline content (FIG. 10B). Data reflect mean+/−SEM of n=8 and n=15 for adenovirus-GFP and adenovirus-TGFβ, respectively. **P<0.01. Mice were infected with 1×10^8 pfu adenovirus particles expressing control (GFP) or active TGFβ1 by tracheal instillation. On day 21 all animals began treatment every 4th day with either vehicle (Methocel/saline) or 3.0 mg/kg of C75. Mice were sacrificed on day 39 and processed for qPCR expression of connective tissue growth factor (CTGF), alpha smooth muscle actin (α-SMA), and collagen Iα1 (Col Iα1). Data reflect mean+/−SEM of n=8 and n=15 for adenovirus-GFP and adenovirus-TGFβ, respectively. *P<0.05, **P<0.01.

[10] = Serum liver enzymes in bleomycin or saline challenged mice; assay type: in vivo, C57BL/6 mice; conditions: 3.0 mg/kg C75 every 4th day from day 14; blood at days 0, 14, and 28
Experimental: C57BL/6 mice were intratracheally treated with an equal volume of saline (control) or bleomycin (BLM; 0.075 U). On day 14 all animals began treatment every 4th day with either vehicle (Methocel/saline) or 3.0 mg/kg of C75. Blood samples were obtained at days 0, 14, and 28 from the facial vein of unanesthetized animals and assessed for effect on liver enzymes. Serum levels (U/L, units per liter; g/dL, grams per deciliter) of alkaline phosphatase (ALP), alanine aminotransferase (ALT), and albumin were determined using a Piccolo Xpress Chemistry Analyzer (FIG. 7A). Data are presented as mean+/−SEM of n=5.

[11] = Blood inflammatory cells in bleomycin or saline challenged mice; assay type: in vivo, C57BL/6 mice; conditions: 3.0 mg/kg C75 every 4th day from day 14; blood at days 0, 14, and 28
Experimental: C57BL/6 mice were intratracheally treated with an equal volume of saline (control) or bleomycin (BLM; 0.075 U). On day 14 all animals began treatment every 4th day with either vehicle (Methocel/saline) or 3.0 mg/kg of C75. Blood samples were obtained at days 0, 14, and 28 from the facial vein of unanesthetized animals and assessed for effect on inflammatory cells. Quantification of lymphocytes, monocytes, and neutrophils were measured using a VetScan HM5 Analyzer (FIG. 7B). Data are presented as mean+/−SEM of n=5.

FASN [12] = assay: Western blot of TGFβ induced FASN expression in AKR-2B fibroblasts; assay type: cell-based, murine; conditions: TGFβ 10 ng/ml, Rapamycin 100 nM, Torin 200 nM, 24 hours
Experimental: (§5) Murine fibroblasts (AKR-2B) and human lung fibroblasts (MRCS) were transfected with either a nontargeting control siRNA (60 nmol/L) or with Smad2/3-targeting siRNA (60 nmol/L). After 72 hours of cultivation, the transient transfectants were stimulated in the absence or presence of 10 ng/ml TGFβ for 24 hours. Proteins were obtained from treated and control cells. Protein samples were Western blotted for FASN, pSmad2, pSmad3, and connective tissue growth factor (CTGF), and Western blotted for GAPDH as a loading control.
(§6) Murine fibroblasts (AKR-2B) and human lung fibroblasts (MRCS) were stimulated in the absence or presence of TGFβ (10 ng/ml) plus a PI3K inhibitor (LY294002; 10 μM), a MEK inhibitor (U0126; 10 μM), an AKT inhibitor (MK2206; 0.3 μM), a mTORC1 inhibitor (Rapamycin; 100 nM), or a mTORC1,2 inhibitor (Torin; 200 nM). Expression of pErk and pS6K/pS6K was determined at 1 and 6 hours post-stimulation while FASN, pSmad3, and GAPDH assessed at 24 hours. TGFβ induced FASN expression was abrogated in the presence of rapamycin or torin (FIGS. 3C and 3D).

FASN [13] = assay: Western blot of TGFβ induced FASN expression in MRCS lung fibroblasts; assay type: cell-based, human; conditions: TGFβ 10 ng/ml, Rapamycin 100 nM, Torin 200 nM, 24 hours
Experimental: as §5, §6

inflammatory cell recruitment (lymphocytes, monocytes, neutrophils) [11]	Compound	in vitro cell proliferation (OD570, cell counts) (AKR-2B cells [1])	TGFβ induced colony formation (AKR-2B cells [2])	in vitro cell proliferation (OD570, cell counts) (MRCS cells [3])	TGFβ induced Col I, Col IV, and FN expression [4]	TGFβ induced cell migration (AKR-2B cells [5])	TGFβ induced cell migration (MRCS cells [6])	FN, CTGF, and Col I expression (qPCR, lung tissue) (FN, CTGF, and Col I)	lung gas exchange (oxygen saturation, SpO2) [7]	TGFβ induced Col I, Col IV, and FN expression [8]	lung function [9]	murine liver enzymes (serum ALP, ALT, albumin) [10]	TGFβ induced FASN expression (FASN [12])	TGFβ induced FASN expression (FASN [13])
no effect	C=C1C(=O)OC(CCCCCCCC)C1C(=O)O (centres unmarked) [C75]	does not inhibit	suppressed	does not inhibit	suppressed	suppressed	suppressed	reduced	stabilized	suppressed	stabilizes lung function	no effect		
	Torin												abrogated	abrogated
